Test results published in BindingDB's records for patent US11034694 (Nimbus Saturn, 2021).

Target: Mitogen-activated protein kinase kinase kinase kinase 1 (Homo sapiens, UniProt Q92918)
Test: Biochemical Enzyme Assay
Description: HPK1 biochemical enzyme assay: HPK1 enzyme inhibition was measured using a microfluidic mobility shift assay. […] Test compounds were titrated in ten point curves (top final assay concentration 3 μM), and preincubated with enzyme/substrate mix for 30 min prior to initiation of the reaction by addition of ATP (1 mM final concentration) and substrate (1 μM final concentration; Carna Biosciences) diluted in assay buffer supplemented by MgCl2 (final assay concentration of 5 mM). Following 60 min incubation at RT, the reaction was terminated by addition of 60 μl/well termination buffer (Carna Biosciences) and signal determination using a Caliper EZ Reader (Perkin Elmer, UK).

Chain of Mitogen-activated protein kinase kinase kinase kinase 1 (Q92918 whole entry): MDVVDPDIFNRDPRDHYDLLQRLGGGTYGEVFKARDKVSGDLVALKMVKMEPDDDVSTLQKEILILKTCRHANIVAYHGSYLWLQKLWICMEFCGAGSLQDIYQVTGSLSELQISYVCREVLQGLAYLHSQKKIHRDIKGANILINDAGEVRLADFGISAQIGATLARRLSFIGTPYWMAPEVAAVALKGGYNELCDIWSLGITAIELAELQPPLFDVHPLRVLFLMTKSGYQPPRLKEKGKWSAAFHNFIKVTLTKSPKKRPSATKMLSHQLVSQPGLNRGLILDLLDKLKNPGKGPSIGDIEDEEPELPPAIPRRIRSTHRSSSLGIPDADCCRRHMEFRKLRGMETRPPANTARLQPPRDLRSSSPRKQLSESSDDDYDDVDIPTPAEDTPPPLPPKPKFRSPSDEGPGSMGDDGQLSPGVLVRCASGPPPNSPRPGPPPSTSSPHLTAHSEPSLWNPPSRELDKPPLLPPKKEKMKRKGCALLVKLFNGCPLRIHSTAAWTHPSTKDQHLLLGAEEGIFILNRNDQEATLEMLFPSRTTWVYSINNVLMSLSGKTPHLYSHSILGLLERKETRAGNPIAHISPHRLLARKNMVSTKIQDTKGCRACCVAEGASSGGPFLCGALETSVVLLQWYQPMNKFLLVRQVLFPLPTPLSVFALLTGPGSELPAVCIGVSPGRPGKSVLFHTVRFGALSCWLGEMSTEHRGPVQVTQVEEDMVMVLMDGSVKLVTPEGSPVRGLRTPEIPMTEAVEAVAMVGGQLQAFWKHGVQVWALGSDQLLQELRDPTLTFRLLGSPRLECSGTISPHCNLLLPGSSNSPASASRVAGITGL

IC50 [nM] | SMILES
< 100 | Cn1ccc2c(-c3ncc(Nc4ccc(N5C[C@H]6COC[C@@H]5C6)cn4)c4c3CNC4=O)ccnc21 [US11034694, Compound I-309]
< 100 | CNC1CN(c2cccc(Cc3cnc(-c4ccnc5c4ccn5C)c4c3C(=O)NC4)n2)C1 [US11034694, Compound I-449]
< 100 | Cc1ccn2c(-c3ccc(Nc4ccc(N5CCO[C@@H](CP)C5)cn4)c4c3CNC4=O)cnc2c1F [US11034694, Compound I-460]
